Measured values taken from US12604903B2 (priority 2019, dated 2026).
Like-named read-outs stand apart in the source and are kept apart here. Residues, ends and D or L forms follow the SMILES beside them.

B1: TKPCQSDKDCKKFACRKPKVPKCINGFCKCVRAPKKVEPTKPCQSDKDCKKFACRKPKVPKCINGFCKCVR (protein)
chain: TKPCQSDKDCKKFACRKPKVPKCINGFCKCVRAPKKVEPTKPCQSDKDCKKFACRKPKVPKCINGFCKCVR
notes: two NCR13 monomers linked in tandem by the APKKVEP spacer peptide from MtDef5 defensin, 71 amino acids

What was measured:
Fusarium oxysporum = type: cell-based

Row | Molecule | Fusarium graminearum MIC (Fusarium graminearum) [µM] | IC50 (Fusarium graminearum) [µM] | IC50 (Phytophthora capsici) [µM] | Phytophthora capsici MIC (Phytophthora capsici) [µM] | Botrytis cinerea MIC (Botrytis cinerea) [µM] | IC50 (Botrytis cinerea) [nM] | Alternaria brassicicola MIC (Alternaria brassicicola) [µM] | IC50 (Alternaria brassicicola) [µM] | Fusarium oxysporum MIC (Fusarium oxysporum) [µM] | IC50 (Fusarium oxysporum) [nM] | other results
1 | CSCC[C@H](NC(=O)[C@H](CCCCN)NC(=O)[C@@H](N)CCCCN)C(=O)N1CCC[C@H]1C(=O)N[C@@H](CS)C(=O)N[C@@H](CCCCN)C(=O)N[C@@H](CCCNC(=N)N)C(=O)N[C@@H](CCCNC(=N)N)C(=O)N[C@@H](CCCNC(=N)N)C(=O)N[C@@H](CC(=O)O)C(=O)N[C@@H](CS)C(=O)N[C@@H](CCCCN)C(=O)N[C@H](C(=O)N[C@@H](Cc1ccc(O)cc1)C(=O)N1CCC[C@H]1C(=O)N[C@@H](CS)C(=O)N1CCC[C@H]1C(=O)N[C@@H](Cc1c[nH]cn1)C(=O)N1CCC[C@H]1C(=O)N[C@@H](CCCCN)C(=O)N[C@H](C(=O)N[C@@H](CCCNC(=N)N)C(=O)N[C@@H](CC(=O)O)C(=O)N[C@@H](CS)C(=O)N[C@H](C(=O)N[C@@H](CCCCN)C(=O)NCC(=O)N[C@@H](Cc1ccc(O)cc1)C(=O)N[C@@H](CS)C(=O)N[C@@H](CCCCN)C(=O)N[C@@H](CS)C(=O)N[C@H](C(=O)N[C@H](C(=O)N[C@@H](CCCNC(=N)N)C(=O)O)C(C)C)C(C)C)C(C)C)C(C)C)[C@@H](C)O [NCR7-S] (H-KKMPCKRRRDCKTYPCPHPKVRDCVKGYCKCVVR-OH; N-terminus and C-terminus assumed) | 6 | 4 | > 6 | >6 | 6 | 3000 | 6 | 4 | – | – | –
2 | CC[C@H](C)[C@H](NC(=O)[C@H](CS)NC(=O)[C@H](CCCCN)NC(=O)[C@@H]1CCCN1C(=O)[C@@H](NC(=O)[C@H](CCCCN)NC(=O)[C@@H]1CCCN1C(=O)[C@H](CCCCN)NC(=O)[C@H](CCCNC(=N)N)NC(=O)[C@H](CS)NC(=O)[C@H](C)NC(=O)[C@H](Cc1ccccc1)NC(=O)[C@H](CCCCN)NC(=O)[C@H](CCCCN)NC(=O)[C@H](CS)NC(=O)[C@H](CC(=O)O)NC(=O)[C@H](CCCCN)NC(=O)[C@H](CC(=O)O)NC(=O)[C@H](CO)NC(=O)[C@H](CCC(N)=O)NC(=O)[C@H](CS)NC(=O)[C@@H]1CCCN1C(=O)[C@H](CCCCN)NC(=O)[C@@H](N)[C@@H](C)O)C(C)C)C(=O)N[C@@H](CC(N)=O)C(=O)NCC(=O)N[C@@H](Cc1ccccc1)C(=O)N[C@@H](CS)C(=O)N[C@@H](CCCCN)C(=O)N[C@@H](CS)C(=O)N[C@H](C(=O)N[C@@H](CCCNC(=N)N)C(=O)O)C(C)C [NCR13-S] (H-TKPCQSDKDCKKFACRKPKVPKCINGFCKCVR-OH) | 6 | 4 | > 6 | >6 | 3 | 1500 | 6 | 4 | – | – | –
3 | CC(C)[C@H](NC(=O)[C@H](CS)NC(=O)[C@H](CCCCN)NC(=O)[C@H](CS)NC(=O)[C@H](Cc1ccccc1)NC(=O)CNC(=O)[C@H](CC(N)=O)NC(=O)[C@@H](NC(=O)[C@H](CS)NC(=O)[C@H](CC(N)=O)NC(=O)[C@@H]1CCCN1C(=O)[C@@H](NC(=O)[C@H](CCCCN)NC(=O)[C@@H]1CCCN1C(=O)[C@@H](NC(=O)[C@@H]1CCCN1C(=O)[C@H](CS)NC(=O)[C@H](CCCNC(=N)N)NC(=O)[C@H](Cc1ccc(O)cc1)NC(=O)[C@@H](NC(=O)[C@H](CCCCN)NC(=O)[C@H](CS)NC(=O)[C@H](Cc1c[nH]cn1)NC(=O)[C@H](CCCCN)NC(=O)[C@H](CCCNC(=N)N)NC(=O)[C@H](CO)NC(=O)[C@H](CCCCN)NC(=O)[C@H](CS)NC(=O)[C@@H]1CCCN1C(=O)[C@H](CCC(N)=O)NC(=O)[C@H](CCCCN)NC(=O)[C@@H](N)[C@@H](C)O)[C@@H](C)O)[C@@H](C)O)C(C)C)C(C)C)C(=O)N[C@@H](CCCNC(=N)N)C(=O)O [NCR15-S] (H-TKQPCKSRKHCKTYRCPTPKVPNCVNGFCKCVR-OH; N-terminus and C-terminus assumed) | 6 | 4 | > 6 | >6 | 6 | 3000 | 6 | 3 | – | – | –
4 | TKPCQSDKDCKKFACRKPKVPKCINGFCKCVR (listed as Cicer arietinum) [NCR13-P] | 3 | – | – | >6 | 3 | – | 4 | – | 2 to 3 | 1000 | IC50 (Fusarium graminearum; read-out: Fusarium graminearum IC50): 2 µM; growth inhibition of P. capsici (in words) (Phytophthora capsici): inactive; IC50 (Phytophthora capsici; read-out: Phytophthora capsici IC50): > 6 µM; IC50 (Botrytis cinerea; read-out: Botrytis cinerea IC50): 1000 nM; IC50 (Alternaria brassicicola; read-out: Alternaria brassicicola IC50): 2 µM
5 | B1 | – | – | – | – | – | – | – | – | 0.3 | 100 | Fusarium graminearum MIC (Fusarium graminearum; in vitro growth inhibition): 1.5 µM; IC50 (Fusarium graminearum; read-out: Fusarium graminearum IC50, in vitro growth inhibition): 1 µM; antifungal activity against F. oxysporum (in words) (Fusarium oxysporum): significantly more active; antifungal activity against B. cinerea (in words) (Botrytis cinerea): significantly more active; Botrytis cinerea MIC (Botrytis cinerea; in vitro growth inhibition): 1.5 µM; IC50 (Botrytis cinerea; read-out: Botrytis cinerea IC50, in vitro growth inhibition): 750 nM
